The nature of the experiment: MIC of test compounds against various organisms. In kind it is cell-based. The source says:
The MIC (μg/ml) of test compounds against various organisms may be determined:
S. epidermidis CL7, S. aureus WCUH29, S. pneumoniae 1629, S. pyogenes CN10, H. influenzae ATCC49247, E. faecalis 2, E. faecium 8, M. catarrhalis Ravisio, E. coli 7623.

[1] abbreviates: versus all of these organisms (S. epidermidis CL7, S. aureus WCUH29, S. pneumoniae 1629, S. pyogenes CN10, H. influenzae ATCC49247, E. faecalis 2, E. faecium 8, M. catarrhalis Ravisio, E. coli 7623).

Each structure is given as a SMILES string.

Turning to `COc1cc(F)c2nccc([C@@H](O)CN3CCC(NCc4ccc5c(n4)NC(=O)CS5)C(F)C3)c2c1` (single isomer, unassigned) [Example 27], the MIC under setting [1] is no more than 2 µg/mL.

With `COc1ccc2nccc([C@@H](O)CN3CCC(NCc4nc5c(cc4Cl)OCC(=O)N5)C(F)C3)c2n1` (single isomer, unassigned) [Example 24], the MIC under setting [1] is no more than 2 µg/mL.

Take `COc1ccc2nccc([C@@H](O)CN3CCC(NCc4ccc5c(n4)NC(=O)CS5)C(F)C3)c2c1` (single isomer, unassigned) [Example 6]: the MIC under setting [1] is no more than 2 µg/mL.

In the case of `COc1ccc2nccc([C@@H](O)CN3CCC(NCc4ccc5c(n4)NC(=O)CO5)C(F)C3)c2n1` (single isomer, unassigned) [Example 20], under setting [1], the MIC is no more than 2 µg/mL.

Take `COc1ccc2nccc([C@@H](O)CN3CC[C@@H](NCc4ccc5c(n4)NC(=O)CS5)C[C@H]3C(F)(F)F)c2n1` [Example 37]: the MIC (versus some of these organisms (panel of b704; which ones not stated)) is no more than 16 µg/mL.

Turning to `COc1ccc2nccc([C@@H](O)CN3CCC(NCc4ccc5c(n4)NC(=O)CO5)C(F)C3)c2c1` (single isomer, unassigned) [Example 10], under setting [1], the MIC is no more than 2 µg/mL.

For `COc1cc(F)c2nccc([C@@H](O)CN3CCC(NCc4ccc5c(n4)NC(=O)CO5)C(F)C3)c2c1` (single isomer, unassigned) [Example 26], the MIC under setting [1] is no more than 2 µg/mL.

The values are drawn from US7312212B2, “Aminopiperidine derivatives” (priority 2002, dated 2007).
